Measured values: ChEMBL document CHEMBL1140560, “Potent, selective spiropyrrolidine pyrimidinetrione inhibitors of MMP-13” (Bioorg Med Chem Lett, 2007)
“And” between values parts separate entries of the source, which are not always exact repeats. Identical values can stand only once.

Tests used:
Collagenase 3 [1] = target: T1, Collagenase 3 (Homo sapiens, UniProt P45452); experiment: Inhibition of MMP13
Rattus norvegicus [2] = experiment: Toxicity in rat assessed as induction of fibroplasia at 800 mg/kg, bid; type: organism-based; design: dose 800 mg/kg; conditions: in vivo
[3] = Half life in rat; type: ADME, organism-based; conditions: in vivo
[4] = Cmax in rat at 300 mg/kg, bid; type: ADME, organism-based; design: dose 300 mg/kg; conditions: in vivo
[5] = Cmax in rat at 800 mg/kg, bid; type: ADME, organism-based; design: dose 800 mg/kg; conditions: in vivo
[6] = plasma Clearance in rat; type: ADME, organism-based
Collagenase 3 [7] = target: T1, Collagenase 3; experiment: Inhibition of MMP13-mediated bovine nasal cartilage degradation assessed as hydroxyprole release; type: functional, tissue-based
Rattus norvegicus [8] = experiment: Toxicity in rat assessed as induction of fibroplasia at 300 mg/kg, bid; type: organism-based; design: dose 300 mg/kg; conditions: in vivo
Rattus norvegicus [9] = experiment: Toxicity in rat assessed as induction of fibroplasia at 30 mg/kg, bid; type: organism-based; design: dose 30 mg/kg; conditions: in vivo
Rattus norvegicus [10] = experiment: Toxicity in rat assessed as induction of fibroplasia at 100 mg/kg, bid; type: organism-based; design: dose 100 mg/kg; conditions: in vivo
Hamster = experiment: Inhibition of human MMP13-induced cartilage damage in hamster at 10 mg/kg, po; type: functional; conditions: Cricetinae
[11] = Volume of distribution at steady state in rat; type: ADME, organism-based; conditions: in vivo, read-out: Vdss
[12] = Chemical stability assessed as half life in phosphate buffer saline at pH 7.2; type: physicochemical; conditions: phosphate buffered saline

SMILES: N#Cc1cccc(-c2coc(-c3ccc(Oc4ccc(N5CCCC56C(=O)NC(=O)NC6=O)cn4)cc3)n2)c1
- IC50 (Collagenase 3 [1]): 0.11 nM

SMILES: CCOCCC1(Oc2ccc(Oc3ccc(-c4nc(-c5cccc(F)c5)co4)cc3)cc2)C(=O)NC(=O)NC1=O
- IC50 (Collagenase 3 [1]): 0.35 nM

SMILES: CN1CC2(C(=O)NC(=O)NC2=O)N(c2ccc(Oc3ccc(F)cc3)nc2)C1=O
- IC50 (Collagenase 3 [1]): 12 nM

SMILES: CCOCCC1(Oc2ccc(Oc3ccc(-c4nc5ccc(Cl)cc5[nH]4)cc3)cc2)C(=O)NC(=O)NC1=O
- IC50 (Collagenase 3 [1]): 0.96 nM

SMILES: O=C1NC(=O)C2(CCCN2c2ccc(Oc3ccc(-c4nc5ccc(F)cc5[nH]4)cc3)nc2)C(=O)N1
- IC50 (Collagenase 3 [1]): 0.08 nM

SMILES: CCOCCC1(Oc2ccc(Oc3ccc(-c4nc(-c5ccc(C#N)cc5)co4)cc3)cc2)C(=O)NC(=O)NC1=O
- IC50 (Collagenase 3 [1]): 0.43 nM

SMILES: O=C1NC(=O)C2(CCCN2c2ccc(Oc3ccc(-c4nc5ccc(Cl)cc5[nH]4)cc3)nc2)C(=O)N1
- IC50 (Collagenase 3 [1]): 0.1 nM

SMILES: CCOCCC1(Oc2ccc(Oc3ccc(F)cc3)nc2)C(=O)NC(=O)NC1=O
- IC50 (Collagenase 3 [1]): 8.9 nM

SMILES: N#Cc1ccc(-c2coc(-c3ccc(Oc4ccc(N5CCCC56C(=O)NC(=O)NC6=O)cn4)cc3)n2)cc1
- IC50 (Collagenase 3 [1]): 0.05 nM

SMILES: O=C1NC(=O)C2(CCCC(=O)N2c2ccc(Oc3ccc(F)cc3)nc2)C(=O)N1
- IC50 (Collagenase 3 [1]): 11.7 nM

SMILES: O=C1NC(=O)C2(CCCN2c2ccc(Oc3ccc(-c4nc(-c5ccccc5F)co4)cc3)nc2)C(=O)N1
- IC50 (Collagenase 3 [1]): 0.16 nM

SMILES: O=C1NC(=O)C2(CCCN2c2ccc(Oc3ccc(-c4nc5ccccc5[nH]4)cc3)nc2)C(=O)N1
- IC50 (Collagenase 3 [1]): 0.11 nM

SMILES: O=C1NC(=O)C2(CCCN2c2ccc(Oc3ccc(-c4nc(-c5ccc(F)cc5)co4)cc3)nc2)C(=O)N1
- Activity (Rattus norvegicus [2]): Toxic
- half-life [3]: 4.5 h
- Cmax [4]: 63 µg/mL
- Cmax [5]: 52 µg/mL
- IC50 (Collagenase 3 [1]): 0.12 nM
- clearance [6]: 3.9 mL/min/kg
- IC50 (Collagenase 3 [7]): 12 nM
- Activity (Rattus norvegicus [8]): Toxic
- Activity (Rattus norvegicus [9]): Non-toxic
- Activity (Rattus norvegicus [10]): Non-toxic
- inhibition in vivo at 10 mg/kg (Hamster): > 80%
- Vd [11]: 1.3 L/kg

SMILES: CCOCCC1(Nc2ccc(Oc3ccc(F)cc3)nc2)C(=O)NC(=O)NC1=O
- IC50 (Collagenase 3 [1]): 2.9 nM

SMILES: O=C1NC(=O)C2(CCCN2c2ccc(Oc3ccc(Br)cc3)nc2)C(=O)N1
- half-life [12]: > 24000 h
- IC50 (Collagenase 3 [1]): 0.6 nM

SMILES: CCOCCC1(Oc2ccc(Oc3ccc(F)cc3)cc2)C(=O)NC(=O)NC1=O
- IC50 (Collagenase 3 [1]): 0.6 nM

SMILES: O=C1NC(=O)C2(CCCN2c2ccc(Oc3ccc(-c4nc(-c5cccc(F)c5)co4)cc3)nc2)C(=O)N1
- IC50 (Collagenase 3 [1]): 0.09 nM

SMILES: CCOCCC1(Oc2ccc(Oc3ccc(-c4nc5ccccc5[nH]4)cc3)cc2)C(=O)NC(=O)NC1=O
- IC50 (Collagenase 3 [1]): 0.49 nM

SMILES: O=C1NC(=O)C2(CCS(=O)(=O)N2c2ccc(Oc3ccc(F)cc3)nc2)C(=O)N1
- half-life [12]: 26.4 h
- IC50 (Collagenase 3 [1]): 138 nM

SMILES: CCOCCC1(Oc2ccc(Oc3ccc(-c4nc5ccc(F)cc5[nH]4)cc3)cc2)C(=O)NC(=O)NC1=O
- IC50 (Collagenase 3 [1]): 0.4 nM

SMILES: O=C1NC(=O)C2(CCCN2c2ccc(Oc3ccc(F)cc3)nc2)C(=O)N1
- IC50 (Collagenase 3 [1]): 1.6 nM and 1.57 nM

SMILES: O=C1NC(=O)C2(CCC(=O)N2c2ccc(Oc3ccc(F)cc3)nc2)C(=O)N1
- half-life [12]: 91.2 h
- IC50 (Collagenase 3 [1]): 3.49 nM

SMILES: CC1(C)CC2(C(=O)NC(=O)NC2=O)N(c2ccc(Oc3ccc(F)cc3)nc2)C1=O
- half-life [12]: 67.2 h
- IC50 (Collagenase 3 [1]): 7.33 nM

SMILES: CCOCCC1(Oc2ccc(Oc3ccc(-c4nc(-c5cccc(C#N)c5)co4)cc3)cc2)C(=O)NC(=O)NC1=O
- IC50 (Collagenase 3 [1]): 0.52 nM

SMILES: O=C1NC(=O)C2(CNC(=O)N2c2ccc(Oc3ccc(F)cc3)nc2)C(=O)N1
- IC50 (Collagenase 3 [1]): 15.1 nM
